Laboratory results: DBAASP
In brackets after ≈: the same amount, converted by molar mass. Blank lines part the entries; values can stand above or below the compound they belong to.

Assays:
Assay in all cases: ≥ marks a high value that may be exact or a test limit, other limits are often not marked, values filed in µg/mL are converted to µM
[1] = test system: Bacillus cereus
[2] = test system: Escherichia coli
[3] = test system: Acinetobacter baumannii ATCC 19606
[4] = test system: Klebsiella pneumoniae ATCC 13883
[5] = test system: Salmonella enterica subsp. enterica serovar Typhimurium ATCC 14028
[6] = test system: Staphylococcus aureus ATCC 25923
[7] = test system: Acinetobacter baumannii
[8] = test system: Escherichia coli ATCC 25922
[9] = test system: Klebsiella pneumoniae
[10] = test system: Pseudomonas aeruginosa ATCC 27853
[11] = test system: Pseudomonas aeruginosa
[12] = test system: Staphylococcus aureus
[13] = test system: Candida albicans ATCC 10231
[14] = test system: Enterococcus faecalis ATCC 29212
[15] = test system: Staphylococcus aureus ATCC 43300
[16] = test system: Staphylococcus aureus ATCC 29213
[17] = test system: Bacillus subtilis KCTC 3068
[18] = test system: Escherichia coli KCTC 1682
[19] = test system: Pseudomonas aeruginosa KCTC 1637
[20] = test system: Salmonella typhimurium KCTC 1926
[21] = test system: Staphylococcus aureus KCTC 1621
[22] = test system: Staphylococcus epidermidis KCTC 1917

MIC [1]: ≥ 124 µM | MIC [2]: 124 µM (≈ 256 µg/mL)
Compound: CC[C@H](C)[C@H](NC(=O)[C@H](CC(=O)O)NC(=O)[C@H](CCCCN)NC(=O)[C@@H](NC(=O)[C@H](CC(C)C)NC(=O)[C@H](CO)NC(=O)[C@H](CCSC)NC(=O)[C@H](CC(C)C)NC(=O)CN)C(C)C)C(=O)N[C@@H](C)C(=O)N[C@@H](CCCCN)C(=O)N[C@@H](CC(C)C)C(=O)N[C@@H](C)C(=O)N[C@@H](C)C(=O)N[C@@H](CCCCN)C(=O)N[C@@H](CCC(N)=O)C(=O)NCC(=O)N[C@@H](C)C(=O)N[C@@H](CCCCN)C(=O)N[C@@H](CCC(N)=O)C(=O)O [GLMSLVKDIAKLAAKQGAKQ]

MIC [3]: 2.7 µM (≈ 5.79 µg/mL) | MIC [4]: 30 µM (≈ 64.3 µg/mL) | MIC [5]: 2.9 µM (≈ 6.22 µg/mL) | MIC [6]: > 30 µM
Compound: CC(C)C[C@H](NC(=O)[C@H](CC(C)C)NC(=O)[C@H](CCCN=C(N)N)NC(=O)[C@H](CCCN=C(N)N)NC(=O)[C@H](C)NC(=O)[C@H](Cc1c[nH]c2ccccc12)NC(=O)CNC(=O)[C@H](CCCN=C(N)N)NC(=O)[C@@H](N)CCCN=C(N)N)C(=O)N[C@@H](CCCN=C(N)N)C(=O)N[C@@H](C)C(=O)N[C@@H](Cc1ccccc1)C(=O)N[C@@H](C)C(=O)N[C@@H](Cc1ccccc1)C(=O)NCC(=O)N[C@@H](CCCN=C(N)N)C(=O)N[C@@H](CCCN=C(N)N)C(N)=O [RRGWARRLLRAFAFGRR]

MIC [3]: > 64 µM | MIC [7]: ≥ 64 µM | MIC [8]: > 64 µM | MIC [2]: > 64 µM | MIC [4]: ≥ 64 µM | MIC [9]: > 64 µM | MIC [10]: > 64 µM | MIC [11]: > 64 µM | MIC [6]: > 64 µM | MIC [12]: > 64 µM
Compound: CC[C@H](C)[C@H](NC(=O)[C@H](CCCCN)NC(=O)CNC(=O)[C@H](C)NC(=O)[C@H](CCCCN)NC(=O)CNC(=O)[C@H](C)NC(=O)[C@@H](NC(=O)[C@H](CCCCN)NC(=O)[C@H](C)NC(=O)[C@@H](NC(=O)[C@H](CCCCN)NC(=O)CNC(=O)[C@H](C)NC(=O)[C@H](CCCCN)NC(=O)CNC(=O)[C@H](C)NC(=O)[C@@H](NC(=O)[C@@H](N)CCCCN)[C@@H](C)CC)[C@@H](C)CC)[C@@H](C)CC)C(=O)N[C@@H](C)C(N)=O [KIAGKAGKIAKIAGKAGKIA]

MIC [13]: > 113 µM | MIC [14]: > 113 µM | MIC [8]: > 113 µM | MIC [10]: > 113 µM | MIC [15]: > 113 µM
Compound: CC(C)[C@H](NC(=O)CN)C(=O)N[C@@H](CO)C(=O)NCC(=O)N[C@@H](Cc1cnc[nH]1)C(=O)NCC(=O)N[C@@H](CCC(N)=O)C(=O)N[C@@H](Cc1cnc[nH]1)C(=O)NCC(=O)N[C@H](C(=O)N[C@@H](Cc1cnc[nH]1)C(=O)NCC(=O)O)C(C)C [GVSGHGQHGVHG]

MIC [13]: 40 µM (≈ 83.6 µg/mL) | MIC [10]: 5.86 µM (≈ 12.2 µg/mL) | MIC [16]: 5.93 µM (≈ 12.4 µg/mL)
Compound: CC(C)C[C@H](NC(=O)[C@H](CCCCN)NC(=O)[C@@H]1CCCN1C(=O)[C@H](CC(C)C)NC(=O)[C@H](CC(C)C)NC(=O)CNC(=O)[C@H](CCCCN)NC(=O)[C@H](CC(C)C)NC(=O)[C@H](CCCCN)NC(=O)[C@@H]1CCCN1C(=O)[C@H](CC(C)C)NC(=O)[C@H](CC(C)C)NC(=O)[C@H](CC(C)C)NC(=O)[C@H](CCCCN)NC(=O)[C@H](CC(C)C)NC(=O)[C@H](CC(C)C)NC(=O)[C@H](CCCCN)NC(=O)[C@@H](N)Cc1ccc(O)cc1)C(N)=O [YKLLKLLLPKLKGLLPKL]

MIC [13]: > 76.3 µM | MIC [10]: 28.6 µM (≈ 63.6 µg/mL) | MIC [16]: 38.1 µM (≈ 84.8 µg/mL)
Compound: CC(C)C[C@H](NC(=O)[C@H](CCCCN)NC(=O)[C@H](CCC(=O)O)NC(=O)[C@H](CC(C)C)NC(=O)[C@H](CC(C)C)NC(=O)[C@H](C)NC(=O)[C@H](CCCCN)NC(=O)[C@H](CC(C)C)NC(=O)[C@H](CCCCN)NC(=O)[C@H](CC(C)C)NC(=O)[C@H](CC(C)C)NC(=O)[C@H](CC(C)C)NC(=O)[C@H](Cc1c[nH]c2ccccc12)NC(=O)[C@H](CCCCN)NC(=O)[C@H](CC(C)C)NC(=O)[C@H](CC(C)C)NC(=O)[C@H](CCCCN)NC(=O)[C@@H](N)Cc1ccc(O)cc1)C(N)=O [YKLLKWLLLKLKALLEKL]

MIC [1]: ≥ 127 µM | MIC [2]: > 127 µM
Compound: CC[C@H](C)[C@H](NC(=O)[C@H](CC(C)C)NC(=O)CNC(=O)[C@@H](NC(=O)[C@@H](NC(=O)[C@H](C)NC(=O)[C@@H]1CCCN1C(=O)[C@@H](NC(=O)[C@@H](NC(=O)[C@H](CCCCN)NC(=O)[C@H](CO)NC(=O)[C@H](C)NC(=O)[C@H](CC(C)C)NC(=O)[C@H](CO)NC(=O)[C@H](Cc1ccccc1)NC(=O)[C@H](CC(C)C)NC(=O)[C@H](C)NC(=O)CN)C(C)C)C(C)C)C(C)C)[C@@H](C)CC)C(=O)N[C@@H](CCCCN)C(=O)N[C@@H](CCCCN)C(=O)O [GALFSLASKVVPAVIGLIKK]

MIC [1]: 7.33 µM (≈ 16 µg/mL) | MIC [2]: 117 µM (≈ 256 µg/mL) | MIC [12]: 3.67 µM (≈ 8 µg/mL)
Compound: CC(C)C[C@H](NC(=O)[C@H](CCCCN)NC(=O)[C@H](Cc1ccccc1)NC(=O)[C@@H](NC(=O)[C@@H](NC(=O)CNC(=O)[C@H](CC(C)C)NC(=O)[C@@H](N)Cc1ccccc1)C(C)C)C(C)C)C(=O)N[C@H](C(=O)N[C@@H](CO)C(=O)N[C@@H](CCCCN)C(=O)N[C@H](C(=O)N[C@@H](Cc1ccccc1)C(=O)N1CCC[C@H]1C(=O)N[C@@H](C)C(=O)N[C@H](C(=O)N[C@@H](Cc1ccccc1)C(=O)NCC(=O)N[C@@H](CCCCN)C(=O)N[C@H](C(=O)O)C(C)C)C(C)C)C(C)C)C(C)C [FLGVVFKLVSKVFPAVFGKV]

MIC [17]: ≥ 32.5 µM | MIC [18]: ≥ 32.5 µM | MIC [19]: 16.2 µM (≈ 25 µg/mL) | MIC [20]: 16.2 µM (≈ 25 µg/mL) | MIC [21]: 16.2 µM (≈ 25 µg/mL) | MIC [22]: 16.2 µM (≈ 25 µg/mL)
Compound: CC[C@H](C)[C@H](NC(=O)[C@H](CCCCN)NC(=O)[C@H](Cc1c[nH]c2ccccc12)NC(=O)[C@H](CC(C)C)NC(=O)[C@@H](N)CCCCN)C(=O)N[C@H](C(=O)N[C@H](C(=O)N[C@H](C(=O)N[C@@H](CCCCN)C(=O)N[C@H](C(=O)N[C@@H](Cc1c[nH]c2ccccc12)C(=O)N[C@@H](CCCCN)C(N)=O)C(C)C)[C@@H](C)CC)C(C)C)C(C)C [KLWKIVVIKVWK]

MIC [1]: ≥ 125 µM | MIC [2]: 125 µM (≈ 256 µg/mL)
Compound: CC(C)C[C@H](NC(=O)CNC(=O)[C@H](Cc1ccccc1)NC(=O)[C@H](CC(C)C)NC(=O)[C@H](C)NC(=O)CN)C(=O)N[C@@H](C)C(=O)N[C@@H](CO)C(=O)N[C@@H](CCCCN)C(=O)N[C@H](C(=O)N[C@@H](Cc1ccccc1)C(=O)N1CCC[C@H]1C(=O)N[C@@H](C)C(=O)N[C@H](C(=O)N[C@@H](Cc1ccccc1)C(=O)NCC(=O)N[C@@H](C)C(=O)N[C@@H](Cc1ccccc1)C(=O)N[C@@H](CCCCN)C(=O)N[C@@H](CCCCN)C(=O)O)C(C)C)C(C)C [GALFGLASKVFPAVFGAFKK]

MIC [1]: ≥ 129 µM | MIC [2]: > 129 µM
Compound: CC[C@H](C)[C@H](NC(=O)[C@H](C)NC(=O)[C@H](CO)NC(=O)[C@H](Cc1ccccc1)NC(=O)[C@@H](NC(=O)[C@H](CO)NC(=O)[C@@H]1CCCN1C(=O)[C@@H](NC(=O)[C@@H](NC(=O)[C@H](CCCCN)NC(=O)[C@H](CO)NC(=O)[C@H](C)NC(=O)[C@@H](NC(=O)CNC(=O)[C@H](Cc1ccccc1)NC(=O)[C@@H](NC(=O)[C@H](C)NC(=O)CN)C(C)C)C(C)C)C(C)C)C(C)C)C(C)C)C(=O)N[C@@H](CCCCN)C(=O)N[C@@H](CCCCN)C(=O)O [GAVFGVASKVVPSVFSAIKK]

MIC [1]: ≥ 119 µM | MIC [2]: 59.5 µM (≈ 128 µg/mL)
Compound: CC[C@H](C)[C@H](NC(=O)[C@@H](NC(=O)[C@H](CS)NC(=O)[C@H](Cc1ccc(O)cc1)NC(=O)[C@@H](NC(=O)[C@H](C)NC(=O)[C@@H]1CCCN1C(=O)[C@H](Cc1ccccc1)NC(=O)[C@@H](NC(=O)[C@H](CCCCN)NC(=O)[C@H](CO)NC(=O)[C@H](C)NC(=O)[C@H](CC(C)C)NC(=O)[C@H](CCCCN)NC(=O)CNC(=O)[C@H](CC(C)C)NC(=O)[C@H](C)N)C(C)C)C(C)C)[C@@H](C)O)C(=O)N[C@@H](CO)C(=O)N[C@@H](CCCN=C(N)N)C(=O)N[C@@H](CCCCN)C(=O)O [ALGKLASKVFPAVYCTISRK]
